Target: T1, wild-type HIV-1 protease (Human immunodeficiency virus type 1 group M subtype B, UniProt P04585)
T1 construct: Escherichia coli expressed wild-type HIV-1 protease protein
Assay: Assay for Inhibition of Microbial Expressed HIV Protease (peptide substrate cleavage, LC-MS/MS readout)
Assay type: biochemical
Settings: E. coli expressed wild-type HIV-1 protease, mean of at least two independent experiments, read-out: HIV Pr Enzyme HIV1 PR IC50
Procedure: Assay for Inhibition of Microbial Expressed HIV Protease
Inhibition of Escherichia coli expressed wild-type HIV-1 protease protein was carried out with a peptide substrate [Val-Ser-Gln-Asn-(βnaphtyl)Ala-Pro-Ile-Val]. The inhibitor compound was preincubated with HIV-1 protease enzyme in assay buffer (50 mM sodium acetate, pH 5.5, 100 mM NaCl, and 0.1% BSA) for 30 minutes at room temperature. Peptide substrate was added to 400 μM in a total volume of 20 μL containing […] HIV-1 protease (final) after which the reaction was incubated for 1 hour at 30° C. […] The extent of inhibition of the reaction was determined from the peak area of the products.
Data shown in the table reflects the mean of at least two independent experiments.

| Compound | IC50 [nM] |
| --- | --- |
| Cn1ncc2cc(-c3ncc4c(n3)CN(C(=O)c3cc(CN5C(=N)N[C@](CCCC(F)(F)F)(c6ccc(F)cc6)C5=O)ccc3C(F)(F)F)C4)ccc21 [Compound 43, (5R)-5-(4-fluorophenyl)-2-imino-3-[3-{[2-(1-methyl-1H-indazol-5-yl)-5,7-dihydro-6H-pyrrolo[3,4-d]pyrimidin-6-yl]carbonyl}-4-(trifluoromethyl)benzyl]-5-(4,4,4-trifluorobutyl)imidazolidin-4-one] | 4.47 |
| N=C1N[C@](CCCC(F)(F)F)(c2ccc(F)cc2)C(=O)N1Cc1ccc(C(F)(F)F)c(C(=O)N2Cc3cnc(-c4cncnc4)nc3C2)c1 [Compound 49, (5R)-5-(4-fluorophenyl)-2-imino-3-{3-[(2-pyrimidin-5-yl-5,7-dihydro-6H-pyrrolo[3,4-d]pyrimidin-6-yl)carbonyl]-4-(trifluoromethyl)-benzyl}-5-(4,4,4-trifluorobutyl)-imidazolidin-4-one] | 5.43 |
| CSc1nnc2n1CCN(C(=O)c1cccc(CN3C(=N)NC(c4ccccc4)(c4ccccc4)C3=O)c1)C2 [Compound 246, 2-imino-3-(3-{[3-(methylsulfanyl)-5,6-dihydro[1,2,4]triazolo[4,3-a]pyrazin-7(8H)-yl]carbonyl}benzyl)-5,5-diphenylimidazolidin-4-one] | 17.5 |
| N=C1NC(c2ccc(F)cc2)(c2ccc(F)cc2)C(=O)N1Cc1ccc(C(F)(F)F)c(C(=O)N2CCCC2)c1 [Compound 180, 5,5-bis(4-fluorophenyl)-2-imino-3-[3-(pyrrolidin-1-ylcarbonyl)-4-(trifluoromethyl)benzyl] imidazolidin-4-one] | 78.8 |
| N=C1NC(CCC2CC2)(c2ccc(C(F)(F)F)cc2)C(=O)N1Cc1ccc(C(F)(F)F)c(C(=O)N2CCn3c(nnc3C(F)(F)F)C2)c1 (stereo not shown) [Compound 131, 5-(2-cyclopropylethyl)-2-imino-5-[4-(trifluoromethyl)phenyl]-3-[4-(trifluoromethyl)-3-{[3-(trifluoromethyl)-5,6-dihydro-[1,2,4]triazolo[4,3-a]pyrazin-7(8H)-yl]carbonyl}benzyl] imidazolidin-4-one] | 84.9 |
| N=C1NC(c2ccccc2)(c2ccccc2)C(=O)N1Cc1cccc(C(=O)N2CCN(c3ccc(F)cc3)CC2)c1 [Compound 359, 3-(3-{[4-(4-fluorophenyl)piperazin-1-yl]carbonyl}benzyl)-2-imino-5,5-diphenylimidazolidin-4-one] | 93.9 |
| N=C1NC(c2ccc(F)cc2)(c2ccc(F)cc2)C(=O)N1Cc1cc(C(=O)N2Cc3ccccc3C2)ccn1 [Compound 398, 3-{[4-(1,3-dihydro-2H-isoindol-2-ylcarbonyl)pyridin-2-yl]methyl}-5,5-bis(4-fluorophenyl)-2-iminoimidazolidin-4-one] | 19.2 |
| CC(C)CC[C@]1(c2ccccc2)NC(=N)N([C@H](C)c2ccc(C(F)(F)F)c(C(=O)N3Cc4nccnc4C3)c2)C1=O [Compound 141, (5R)-3-{(1R)-1-[3-(5,7-dihydro-6H-pyrrolo[3,4-b]pyrazin-6-ylcarbonyl)-4-(trifluoromethyl)phenyl]ethyl}-2-imino-5-(3-methylbutyl)-5-phenylimidazolidin-4-one] | 3.04 |
| CC(C)CC1(c2ccccc2)NC(=N)N(Cc2cccc(C(=O)N3CCc4ccccc4C3)c2)C1=O (stereo not shown) [Compound 318, 3-[3-(3,4-dihydroisoquinolin-2(1H)-ylcarbonyl)benzyl]-2-imino-5-(2-methyl-propyl)-5-phenylimidazolidin-4-one] | 56.2 |
| COCCn1cc(-c2ncc3c(n2)CN(C(=O)c2cc(CN4C(=N)N[C@](CCCC(F)(F)F)(c5ccc(F)cc5)C4=O)ccc2C(F)(F)F)C3)cn1 [Compound 20, (5R)-5-(4-fluorophenyl)-2-imino-3-[3-({2-[1-(2-methoxyethyl)-1H-pyrazol-4-yl]-5,7-dihydro-6H-pyrrolo[3,4-d]pyrimidin-6-yl}carbonyl)-4-(trifluoromethyl)benzyl]-5-(4,4,4-trifluorobutyl)imidazolidin-4-one] | 2.3 |
| CN(C)C(=O)N1CCN(C(=O)c2cc(F)cc(CN3C(=N)NC(c4ccccc4)(c4ccccc4)C3=O)c2)CC1 [Compound 309, 4-({3-fluoro-5-[(2-imino-5-oxo-4,4-diphenylimidazolidin-1-yl)methyl]phenyl}carbonyl)-N,N-dimethylpiperazine-1-carboxamide] | 122 |
| CCCC1(c2ccccc2)NC(=N)N(Cc2cccc(C(=O)N3Cc4cnc(C)nc4C3)c2)C1=O (stereo not shown) [Compound 345, 2-imino-3-{3-[(2-methyl-5,7-dihydro-6H-pyrrolo[3,4-d]pyrimidin-6-yl)carbonyl]benzyl}-5-phenyl-5-propylimidazolidin-4-one] | 81.9 |
| CC(C)Nc1ncc2c(n1)CN(C(=O)c1cc(CN3C(=N)N[C@](CCCC(F)(F)F)(c4ccc(F)cc4)C3=O)ccc1C(F)(F)F)C2 [Compound 51, (5R)-5-(4-fluorophenyl)-2-imino-3-[3-({2-[(1-methylethyl)amino]-5,7-dihydro-6H-pyrrolo[3,4-d]pyrimidin-6-yl}carbonyl)-4-(trifluoromethyl)benzyl]-5-(4,4,4-trifluorobutyl)imidazolidin-4-one] | 5.51 |
| COC(=O)Nc1ncc2c(n1)CN(C(=O)c1ccc3c(c1)[C@H](N1C(=N)N[C@](CCC(C)C)(c4ccccc4)C1=O)CCC3)C2 [Compound 81, methyl [6-({(8R)-8-[(4R)-2-imino-4-(3-methylbutyl)-5-oxo-4-phenylimidazolidin-1-yl]-5,6,7,8-tetrahydronaphthalen-2-yl}carbonyl)-6,7-dihydro-5H-pyrrolo[3,4-d]pyrimidin-2-yl]carbamate] | 12 |
| CC(C)CCC(c1ccc(C(F)(F)F)c(C(=O)N2Cc3nccnc3C2)c1)N1C(=N)N[C@](CCC(C)C)(c2ccccc2)C1=O (stereo partly drawn) [Compound 9, (5R)-3-{1-[3-(5,7-dihydro-6H-pyrrolo[3,4-b]pyrazin-6-ylcarbonyl)-4-(trifluoromethyl)phenyl]-4-methylpentyl}-2-imino-5-(3-methylbutyl)-5-phenylimidazolidin-4-one] | 0.6 |
| CC(C)CC1(c2ccccc2)NC(=N)N(Cc2cccc(C(=O)N3CCN(c4ccccn4)CC3)c2)C1=O (stereo not shown) [Compound 321, 2-imino-5-(2-methylpropyl)-5-phenyl-3-{3-[(4-pyridin-2-ylpiperazin-1-yl)carbonyl]benzyl} imidazolidin-4-one] | 56.8 |
| CCOC(=O)c1nc2n(c1Cl)CCN(C(=O)c1cccc(CN3C(=N)NC(c4ccccc4)(c4ccccc4)C3=O)c1)C2 [Compound 209, ethyl 3-chloro-7-({3-[(2-imino-5-oxo-4,4-diphenylimidazolidin-1-yl)methyl]phenyl}carbonyl)-5,6,7,8-tetrahydroimidazo[1,2-a]pyrazine-2-carboxylate] | 8.83 |
| CC(C)CCC(c1ccc(C(F)(F)F)c(C(=O)N2CCn3c(nnc3C(F)(F)F)C2)c1)N1C(=N)N[C@](CCC(C)C)(c2ccccc2)C1=O (stereo partly drawn) [Compound 23, (5R)-2-imino-5-(3-methylbutyl)-3-{4-methyl-1-[4-(trifluoromethyl)-3-{[3-(trifluoromethyl)-5,6-dihydro[1,2,4]triazolo[4,3-a]pyrazin-7(8H)-yl]carbonyl}phenyl]pentyl}-5-phenylimidazolidin-4-one] | 2.38 |
| CCC(c1cccc(C(=O)N2Cc3cncnc3C2)c1)N1C(=N)NC(c2ccccc2)(c2ccccc2)C1=O (stereo not shown) [Compound 263, 3-{1-[3-(5,7-dihydro-6H-pyrrolo[3,4-d]pyrimidin-6-ylcarbonyl)phenyl]propyl}-2-imino-5,5-diphenylimidazolidin-4-one] | 24.7 |
